Experimental findings from patent publication US8617563B2, “Antichlamydial agents” (Duke University, priority 2011, dated 2013) are described below.

“Also recorded” adds a separate entry of the source. Where no end group is shown, it is not given here.

In experiment [1] the target is CPAF (Chlamydia trachomatis serovar D, UniProt O84866). Briefly: HPLC-based CPAF inhibition assay with Abz-tagged model substrate (SEQ ID NO:9). Details: 6xHis; made in house; host or cells: E. coli BL21 (DE3), plasmid pET30b-CPAF. Format: biochemical, C. trachomatis. The method, then:
FIG. 1 depicts the results of HPLC-based CPAF inhibition assays using a model CPAF substrate (SEQ ID NO:9) to compare inhibition of CPAF protease activity by SEQ ID NO:7, SEQ ID NO:2, and lactacystin. HPLC-based assays were performed in a final volume of 100 μL containing assay buffer, CPAF (62.5 nM), substrate 1 (0.5 mM), and varying concentrations of inhibitor (0-240 μM).
HPLC-based assays comprised an Abz-tagged model CPAF substrate (SEQ ID NO:9) and were performed in a final volume of 100 μL containing 150 mM NaCl, 50 mM Tris pH 7.50, purified CPAF (62.5 nM), fluorescent-tagged model CPAF substrate (0.5 mM), and varying concentrations of each candidate compound (0-240 μM). IC50 values were determined by pre-incubating CPAF with varying concentrations of candidate compound for 5 min at room temperature prior to initiation of the reaction via the addition of model CPAF substrate. Reactions were allowed to proceed for 90 seconds at 25° C., followed by removal of 80 μL aliquots and quenching by the addition of 1.2 M HCl (40 μL). Data were converted to percent activity relative to a control reaction without candidate compound and fit to the following equation using GraFit v6.0, where [I] is the concentration of candidate compound and s is a slope factor: […]

For experiment [2], the system named is C. muridarum CPAF. Briefly: GST-IncC cleavage by lysate of C. muridarum infected cells. Type of experiment: biochemical. To be noted: infected whole cell lysate. The method, then:
Cells were infected with an MOI of 1 and treated with CPAF inhibitor (SEQ ID NO:7) or control (SEQ ID NO:11) peptides at 12 hpi, fixed at 24 hpi and analyzed by IF with anti-L2 polyclonal antisera. Inclusion size was determined by measuring the inclusion diameter in μm by confocal microscopy of 50 infected cells. The number of cells with fragmented inclusions was determined by counting the number of infected cells out of 50 with more than one inclusion. (C) Sequence alignment and % sequence identify of full length CPAF and predicted inhibitory peptide sequence between C. trachomatis serovar LGV-L2, Chlamydia muridarum, and Chlamydophila caviae was determined using Geneious software (available at the Geneious website). […] GPIC or C. muridarum infected whole cell protein lysate was preincubated with SEQ ID NO:7 peptide or SEQ ID NO:11 control peptide, mixed with GST-IncC at 37° C., resolved by SDS-PAGE and stained with Coomassie blue. […] Inhibition of C. muridarum (E) and C. ceviae (F) growth was determined by counting the number of recovered IFUs. […] Inclusions were detected by IF with anti-LGV-L2 (A, B, E) antisera or anti-chlamydial LPS (F) monoclonal antibodies, and host nuclei sere detected by staining.

In experiment [3] the test system is mouse lung fibroblasts infected with C. trachomatis and C. muridarum. Briefly: Cell death in infected mouse lung fibroblasts from ICE−/− and ASC−/− knockout mice. Format: cell-based. To be noted: knockout cells, unlike wild-type counterparts. The method, then: FIG. 12 depicts (A) low-magnification view of C. trachomatis LGV-L2 infected HeLa monolayers (30 h) treated with SEQ ID NO:7 or SEQ ID NO:11 peptides. (B) The frequency of condensed nuclei in treated cells is dependent on peptide concentration and Chlamydia infection. (C-D) Toxicity of CPAF inhibitors to Chlamydia-infected cells is observed in non-myeloid cells including human embryonic kidney cells HEK293 (C) and mouse embryo fibroblasts (D). […] (F-G) Cell death induced by anti-CPAF peptides requires Caspase-1 activation. HeLa cells infected with C. muridarum were treated with Ac-YVAD-CMK at 2 hpi, SEQ ID NO:7 peptide or SEQ ID NO:11 control peptide at 12 hpi and the percentage of infected cells with condensed nuclei was assessed at 48 hpi (F). […] The percentage of infected cells with condensed nuclei was assessed at 48 hpi (G). […] Cell death in infected and uninfected cells treated with CPAF inhibitory peptides or control peptides was determined by counting the number of condensed nuclei of ˜1000 cells.
FIG. 13 depicts (A) that Caspase-1 inhibitors block Chlamydia-mediated cell death. […] Cells were fixed and the percentage of cells with condensed nuclei determined at 24 hpi. […] Infected cells were labeled with a cell-permeable fluorescent substrate of Caspase-1 and treated with inhibitory peptides, and Caspase-1 activity was monitored by flow cytometry. […]

For experiment [4], the system named is epithelial cells infected with C. muridarum. In words: Host cell death (condensed nuclei) in C. muridarum infected cells. Format: cell-based. To be noted: dose-dependent, peptide at 12 hpi. The method, then: FIG. 12 depicts (A) low-magnification view of C. trachomatis LGV-L2 infected HeLa monolayers (30 h) treated with SEQ ID NO:7 or SEQ ID NO:11 peptides. (B) The frequency of condensed nuclei in treated cells is dependent on peptide concentration and Chlamydia infection. (C-D) Toxicity of CPAF inhibitors to Chlamydia-infected cells is observed in non-myeloid cells including human embryonic kidney cells HEK293 (C) and mouse embryo fibroblasts (D). […] (F-G) Cell death induced by anti-CPAF peptides requires Caspase-1 activation. HeLa cells infected with C. muridarum were treated with Ac-YVAD-CMK at 2 hpi, SEQ ID NO:7 peptide or SEQ ID NO:11 control peptide at 12 hpi and the percentage of infected cells with condensed nuclei was assessed at 48 hpi (F). Mouse lung fibroblasts (MLF) derived from congenic WT, ICE1^−/− and ASC^−/− animals were infected with C. muridarum and treated with the indicated concentrations of anti peptides 12 hpi. The percentage of infected cells with condensed nuclei was assessed at 48 hpi (G). LGV-L2 inclusions were immunostained with anti-L2 antisera and C. muridarum and C. caviae inclusions were immunostained with an anti-chlamydial LPS monoclonal antibody. Cell death in infected and uninfected cells treated with CPAF inhibitory peptides or control peptides was determined by counting the number of condensed nuclei of ˜1000 cells.

CPAF, sequence (O84866 276-601): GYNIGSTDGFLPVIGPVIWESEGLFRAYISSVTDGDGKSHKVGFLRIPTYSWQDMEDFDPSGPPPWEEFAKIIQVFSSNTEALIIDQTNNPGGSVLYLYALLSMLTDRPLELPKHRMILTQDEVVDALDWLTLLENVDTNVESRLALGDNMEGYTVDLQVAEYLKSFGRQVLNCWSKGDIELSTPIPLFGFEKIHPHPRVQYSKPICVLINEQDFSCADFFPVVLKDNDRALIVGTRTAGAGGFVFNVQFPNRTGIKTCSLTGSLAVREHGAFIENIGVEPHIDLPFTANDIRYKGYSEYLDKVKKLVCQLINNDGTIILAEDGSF
CPAF, sequence (O84866 1-234, added parts left off): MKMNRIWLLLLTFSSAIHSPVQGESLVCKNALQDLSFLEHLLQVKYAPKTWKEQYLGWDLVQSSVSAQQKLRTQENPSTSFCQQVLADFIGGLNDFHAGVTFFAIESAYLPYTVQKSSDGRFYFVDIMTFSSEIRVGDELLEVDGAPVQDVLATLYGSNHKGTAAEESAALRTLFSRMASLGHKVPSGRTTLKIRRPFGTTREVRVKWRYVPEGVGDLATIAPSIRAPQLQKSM

In experiment [1] (CPAF 62.5 nM, substrate SEQ ID NO:9 0.5 mM, inhibitor 0-240 μM), “SLFYSPMVPHFWAELRNHYATSGLKRRRRRRRRR-NH2 [SEQ ID NO:7]” showed an IC50 of 50 ± 7 nM. Further, in experiment [1] (HPLC-based assay, greater than SEQ ID NO:2), the “CPAF inhibition relative to SEQ ID NO:2” value is “about 30 fold”. Moreover, in experiment [1] (HPLC-based assay, greater than lactacystin), the “CPAF inhibition relative to lactacystin” value is “about 200 fold”. The “Inhibition of substrate cleavage by C. muridarum CPAF” value in experiment [2] is listed as “prevented cleavage of substrate; also recorded: inhibits C. muridarum CPAF”. For the same substance, in experiment [3], the “Host cell death in infected ICE−/− and ASC−/− mouse lung fibroblasts” value is on record as “resistant to host cell death”. For the same substance, the “Number of condensed nuclei in C. muridarum infected cells” value in experiment [4] is given as “marked increase in the number of condensed nuclei”.

What is called IC50 is the concentration at which inhibition is half-maximal. Low values mean inhibition by little substance, high ones a need for much substance.
